In ChEMBL document CHEMBL1201862, “PubChem BioAssay data set” (2004):
Where “and” joins values, the source holds several entries; their conditions need not be identical. Identical values can stand only once.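 In this assay, cells in 96-well plates receive the compound at five concentrations for 48 hours. Endpoints are linearly interpolated between the surrounding concentrations. GI50: concentration for 50% inhibition of growth.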 Calls of active or inactive are those of the source. Rule as the data show it: active = GI50 up to about 1.1 µM and inactive = higher.

Assays:
Assay in all cases: DTP human tumour cell line panel, 48 h
TK-10 = tested on: TK-10
HOP-62 = tested on: HOP-62
SK-MEL-2 = tested on: SK-MEL-2
SF-539 = tested on: SF-539
M14 = tested on: M14
MDA-MB-435 = tested on: MDA-MB-435
U-251 = tested on: U-251
A498 = tested on: A498
OVCAR-3 = tested on: OVCAR-3
HL-60 = tested on: HL-60
SR = tested on: SR
COLO 205 = tested on: COLO 205
NCI-H522 = tested on: NCI-H522
SK-MEL-5 = tested on: SK-MEL-5
Malme-3M = tested on: Malme-3M
HT-29 = tested on: HT-29
RPMI-8226 = tested on: RPMI-8226
UACC-257 = tested on: UACC-257
SF-295 = tested on: SF-295
OVCAR-5 = tested on: OVCAR-5

SMILES	GI50 (TK-10)	GI50 (HOP-62)	GI50 (SK-MEL-2)	GI50 (SF-539)	GI50 (M14)	GI50 (MDA-MB-435)	GI50 (U-251)	GI50 (A498)	GI50 (OVCAR-3)	GI50 (HL-60)	GI50 (SR)	GI50 (COLO 205)	GI50 (NCI-H522)	GI50 (SK-MEL-5)	GI50 (Malme-3M)	GI50 (HT-29)	GI50 (RPMI-8226)	GI50 (UACC-257)	GI50 (SF-295)	GI50 (OVCAR-5)
C=C(Cl)C(Cl)(CBr)CCC(Br)C(C)(C)Cl (stereo not given)	3.43 µM (inactive) and 1.93 µM (inactive) and 2.07 µM (inactive)	703 nM (active) and 785 nM (active) and 1.43 µM (inactive)	1.31 µM (inactive)	1.95 µM (inactive) and 446 nM (active) and 1.27 µM (inactive)	18.7 µM (inactive) and 15.6 µM (inactive) and 26.7 µM (inactive)	2.18 µM (inactive) and 11.1 µM (inactive) and 1.77 µM (inactive)	277 nM (active) and 1.41 µM (inactive) and 615 nM (active)	1.63 µM (inactive) and 2.79 µM (inactive) and 2.03 µM (inactive)	798 nM (active) and 2.23 µM (inactive) and 1.51 µM (inactive)	635 nM (active) and 733 nM (active) and 2.42 µM (inactive)	11.5 µM (inactive) and 4.53 µM (inactive) and 15 µM (inactive)	1.72 µM (inactive) and 2.95 µM (inactive) and 14.5 µM (inactive)	16 µM (inactive) and 13.8 µM (inactive) and 14.3 µM (inactive)	14.9 µM (inactive) and 12.7 µM (inactive) and 12.4 µM (inactive)	13.6 µM (inactive) and 15.3 µM (inactive) and 7.36 µM (inactive)	497 nM (active) and 828 nM (active) and 735 nM (active)	149 nM (active) and 221 nM (active) and 485 nM (active)	2.78 µM (inactive) and 1.66 µM (inactive) and 2.1 µM (inactive)	1.79 µM (inactive) and 1.65 µM (inactive) and 1.35 µM (inactive)	1.93 µM (inactive) and 14.7 µM (inactive) and 3.42 µM (inactive)
O=C1/C(=C\c2ccc([N+](=O)[O-])o2)SC2NC(COc3ccc(Cl)cc3)=NN12 (stereo not given)	17.6 µM (inactive)	22.5 µM (inactive)	18.9 µM (inactive)	4.1 µM (inactive)	2.31 µM (inactive)	4.2 µM (inactive)	19.3 µM (inactive)	23.7 µM (inactive)	6.27 µM (inactive)	2.16 µM (inactive)	3.47 µM (inactive)	3.37 µM (inactive)	2.22 µM (inactive)	12.8 µM (inactive)	2.4 µM (inactive)	6.05 µM (inactive)	3.21 µM (inactive)	5.09 µM (inactive)	19.3 µM (inactive)	21.2 µM (inactive)
Clc1cc(OCC23CC4CC(CC(C4)C2)C3)nc(OCC23CC4CC(CC(C4)C2)C3)n1	> 100 µM (inactive)	> 100 µM (inactive)	> 100 µM (inactive)	> 100 µM (inactive)	> 100 µM (inactive)	> 100 µM (inactive)	> 100 µM (inactive)	> 100 µM (inactive)	> 100 µM (inactive)	> 100 µM (inactive)	> 100 µM (inactive)	> 100 µM (inactive)	> 100 µM (inactive)	> 100 µM (inactive)	> 100 µM (inactive)	> 100 µM (inactive)	> 100 µM (inactive)	> 100 µM (inactive)	41.7 µM (inactive)	> 100 µM (inactive)
CCC(CC)C(=O)OC[n+]1cccc(-c2c(COC(=O)NC(C)C)c(COC(=O)NC(C)C)c3n2CCC3)c1	> 100 µM (inactive)	43.4 µM (inactive)	> 100 µM (inactive)	68.7 µM (inactive)	56.9 µM (inactive)	> 100 µM (inactive)	> 100 µM (inactive)	> 100 µM (inactive)	> 100 µM (inactive)	33.1 µM (inactive)	5.87 µM (inactive)	> 100 µM (inactive)	56.2 µM (inactive)	> 100 µM (inactive)	> 100 µM (inactive)	> 100 µM (inactive)	> 100 µM (inactive)	> 100 µM (inactive)	> 100 µM (inactive)	> 100 µM (inactive)
O=C1C=C2C(=NC34CCCCC3C(c3ccccc3)C3=C(c5ccccc5CC3)N24)c2ccccc21 (stereo not given)	> 10 µM (inactive)	> 10 µM (inactive)	> 10 µM (inactive)	> 10 µM (inactive)	> 10 µM (inactive)	> 10 µM (inactive)	> 10 µM (inactive)	> 10 µM (inactive)	> 10 µM (inactive)	> 10 µM (inactive)	8.22 µM (inactive)	> 10 µM (inactive)	> 10 µM (inactive)	> 10 µM (inactive)	> 10 µM (inactive)	> 10 µM (inactive)	> 10 µM (inactive)	> 10 µM (inactive)	> 10 µM (inactive)	> 10 µM (inactive)
CC(CCc1ccccc1)NCC(O)n1c(/N=N/N(C)C)nc2c1c(=O)n(C)c(=O)n2C (stereo not given)	> 100 µM (inactive)	> 100 µM (inactive)	> 100 µM (inactive)	> 100 µM (inactive)	> 100 µM (inactive)	> 100 µM (inactive)	> 100 µM (inactive)	> 100 µM (inactive)	> 100 µM (inactive)	66.7 µM (inactive)	43.2 µM (inactive)	> 100 µM (inactive)	> 100 µM (inactive)	78.7 µM (inactive)	> 100 µM (inactive)	> 100 µM (inactive)	> 100 µM (inactive)	> 100 µM (inactive)	> 100 µM (inactive)	> 100 µM (inactive)
OCCCCCCOc1ccc(-c2cc(-c3ccccn3)nc(-c3ccccn3)c2)cc1	0.357 µM (active)	0.172 µM (active)	0.233 µM (active)	0.143 µM (active)	0.202 µM (active)	0.462 µM (active)	0.0877 µM (active)	1.11 µM (active)	0.22 µM (active)	0.0853 µM (active)	0.0286 µM (active)	0.372 µM (active)	0.536 µM (active)	0.243 µM (active)	0.404 µM (active)	0.228 µM (active)	0.134 µM (active)	0.397 µM (active)	0.194 µM (active)	0.489 µM (active)
Cn1c(=O)nc2n(-c3ccc(Cl)cc3)c3cc(Cl)ccc3nc-2c1=O	20 µM (inactive)	18.1 µM (inactive)	2.55 µM (inactive)	16.5 µM (inactive)	2.07 µM (inactive)	1.68 µM (inactive)	17.7 µM (inactive)	14.3 µM (inactive)	1.95 µM (inactive)	2.06 µM (inactive)	3.93 µM (inactive)	2.11 µM (inactive)	2.99 µM (inactive)	1.67 µM (inactive)	1.89 µM (inactive)	2.62 µM (inactive)	3.79 µM (inactive)	1.82 µM (inactive)	10.9 µM (inactive)	15 µM (inactive)
O=C(CCCl)NN=C1NCCN1	> 100 µM (inactive)	> 100 µM (inactive)	> 100 µM (inactive)	> 100 µM (inactive)	> 100 µM (inactive)	> 100 µM (inactive)	> 100 µM (inactive)	> 100 µM (inactive)	> 100 µM (inactive)	> 100 µM (inactive)	> 100 µM (inactive)	> 100 µM (inactive)	> 100 µM (inactive)	> 100 µM (inactive)	> 100 µM (inactive)	> 100 µM (inactive)	> 100 µM (inactive)	> 100 µM (inactive)	> 100 µM (inactive)	> 100 µM (inactive)
COC(=O)C1=C(C(=O)OC)N(c2ccncc2)C(c2ccco2)=CC1c1ccccc1[N+](=O)[O-] (stereo not given)	2.75 µM (inactive)	15.5 µM (inactive)	18.2 µM (inactive)	1.75 µM (inactive)	4.21 µM (inactive)	6.15 µM (inactive)	3.32 µM (inactive)	5.24 µM (inactive)	5.27 µM (inactive)	2.46 µM (inactive)	0.75 µM (active)	4.75 µM (inactive)	2.03 µM (inactive)	2.39 µM (inactive)	4.55 µM (inactive)	1.99 µM (inactive)	1.39 µM (inactive)	2.02 µM (inactive)	6.19 µM (inactive)	14.6 µM (inactive)
CC(=O)NNc1nc(C)c(C(/C=C/c2ccc([N+](=O)[O-])cc2)=N/N)s1	37.9 µM (inactive)	68.1 µM (inactive)	> 100 µM (inactive)	> 100 µM (inactive)	> 100 µM (inactive)	> 100 µM (inactive)	> 100 µM (inactive)	70.5 µM (inactive)	> 100 µM (inactive)	21 µM (inactive)	37.7 µM (inactive)	> 100 µM (inactive)	> 100 µM (inactive)	> 100 µM (inactive)	> 100 µM (inactive)	> 100 µM (inactive)	30.9 µM (inactive)	88.1 µM (inactive)	> 100 µM (inactive)	> 100 µM (inactive)
COc1ccc2c(c1)/C(=C\c1c(Cl)nc3sc(C)cn13)C(=O)N2	6.37 µM (inactive)	6.4 µM (inactive)	2.87 µM (inactive)	2.01 µM (inactive)	2.69 µM (inactive)	0.286 µM (active)	3.21 µM (inactive)	3.7 µM (inactive)	2.41 µM (inactive)	1.34 µM (inactive)	0.7 µM (active)	1.6 µM (inactive)	3.05 µM (inactive)	2.16 µM (inactive)	2.37 µM (inactive)	2.41 µM (inactive)	2.61 µM (inactive)	4.11 µM (inactive)	1.74 µM (inactive)	9.59 µM (inactive)
C[C@]12OC(=O)[C@]3(O)CC[C@H]4[C@@H](C[C@@H](O)[C@@]5(Cl)CC=CC(=O)[C@]45C)[C@]45OCC6C(=O)O[C@@H]1C[C@@]6(C)[C@H](C4=O)[C@@]32O5 (stereo not given in full)	1.6 µM (inactive)	2.78 µM (inactive)	1.17 µM (inactive)	0.759 µM (active)	1.13 µM (inactive)	2 µM (inactive)	1.5 µM (inactive)	1.37 µM (inactive)	1.5 µM (inactive)	0.356 µM (active)	0.811 µM (active)	0.867 µM (active)	0.16 µM (active)	1.56 µM (inactive)	1.3 µM (inactive)	1.55 µM (inactive)	0.596 µM (active)	2.01 µM (inactive)	3.05 µM (inactive)	1.4 µM (inactive)
